Patent publication US20240415878A1, “Compositions and Methods for Modulating Mitochondrial Function” (Board of Regents, The University of Texas System, priority 2021, published 2024)

Tests used:
MCU = target: T1, MCU (Homo sapiens, UniProt Q8NE86); experiment: MCU-mediated mCa2+ uptake in permeabilized cells (spectrofluorometry); assay type: cell-based; conditions: permeabilized cells (HeLa, 10 μM per FIG. 10H legend)
T1 construct: endogenous in cells; host or cells: HeLa cells, permeabilized
T1 sequence (Q8NE86 51-351): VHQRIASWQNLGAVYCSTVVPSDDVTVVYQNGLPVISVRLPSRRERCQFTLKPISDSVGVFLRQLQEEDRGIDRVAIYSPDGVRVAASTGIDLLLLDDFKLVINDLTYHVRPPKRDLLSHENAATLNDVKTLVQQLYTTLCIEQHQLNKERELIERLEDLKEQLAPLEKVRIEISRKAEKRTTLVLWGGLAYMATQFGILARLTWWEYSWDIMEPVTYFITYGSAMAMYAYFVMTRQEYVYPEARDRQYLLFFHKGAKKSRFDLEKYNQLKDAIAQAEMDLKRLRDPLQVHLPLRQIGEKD
T1 sequence (Q9H4I9 48-107 partner limits assumed): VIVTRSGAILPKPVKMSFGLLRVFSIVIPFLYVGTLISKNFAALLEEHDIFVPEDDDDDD
Method: Bacterial CorA forms a pentameric complex that selectively drives Mg2+ uptake in an electrogenic manner. […] Mrs2 is the eukaryotic homologue of CorA and contains two transmembrane domains with a well-conserved F/Y-G-M-N motif; therefore, CorA blockers were tested to determine if they alter Mrs2-mediated mMg^2+ uptake (Moomaw and Maguire, 2008). Digitonin permeabilized hepatocytes were utilized to measure the inhibitory effect and determine its IC50. Permeabilized cells were treated with CPACC followed by a 1 mM bolus of MgCl2 (FIG. 10B). A 1 mM Mg^2+ bolus was added after baseline recording, and the extramitochondrial Mg^2+ clearance was used as a read-out for Mrs2-mediated mMg^2+ uptake using Mag-Green as a Mg^2+ indicator. […] We next investigated Mrs2 inhibition in intact hepatocytes loaded with Mag-Green-AM. […] Next CPACC was examined to determine if it had any effect on MCU-mediated mCa^2+ uptake in permeabilized cells. […] The availability of the compound to intact cells was measured using graphite furnace atomic absorption spectroscopy (GFAAS) and bicinchoninic acid in parallel.
Spectrofluorimetric measurement of mitochondrial Mg^2+ and Ca^2+ dynamics and citrate mediated MagGreen fluorescence quenching. Fluorescence measurements were conducted in a multiwavelength excitation dual wavelength emission spectrofluorometer (Delta RAM, PTI, HORIBA). […]

HIF-1α = conditions: cell culture
Excerpt: HIF-1α is stabilized in Mrs2−/− mice. To examine the intrinsic role of Mrs2, Mrs2^−/− mice were challenged to LPS-induced inflammatory response. It was noticed that there was a barely detectable HIF-1α stabilization in control but a significant HIF-1α protein accumulation following LPS stimulation in Mrs2^−/− hepatocytes (Daw et al., 2020). […] It was envisioned that loss of Mrs2 in hepatocyte mitochondria might control metabolite fluxes that regulates HIF-1α stability under normoxic conditions. HIF-1α is the most commonly studied transcription factor that responds to oxygen tension and its stabilization controls numerous metabolic cascades, including glycolysis and oxidative phosphorylation (Kaelin and Ratcliffe, 2008; Lum et al., 2007; Semenza, 2013). A targeted metabolite screen was conducted to identify whether these metabolites potentially altered in Mrs2^−/− control HIF-1α stabilization. WT hepatocytes were treated with the PHD inhibitor FG-4952 for 6 hours in the presence or absence of metabolites (Buckley et al., 2012). […] Next it was explored whether citric acid mediated HIF-1α destabilization is a hydroxylation dependent mechanism by reconstitution of hydroxylation-dead mutant HIF-1α in COS-7 cells (Yan et al., 2007). […] Next tested the potency of citric acid and sodium citrate was tested. Hepatocytes isolated from WT or Mrs2^−/− mice were treated for 6 hours. HIF-1α stabilization was less affected by di- or tri-sodium citrate than by citric acid (FIG. 9G). […] The citric acid-mediated HIF-1α destabilization was intact in multiple chemical modalities (FIG. 9H) and the intracellular chelation of Mg^2+ ions suppressed FG-4952-induced HIF-1α stabilization (FIG. 9I). […] Furthermore, COS-7 cells were more sensitive to the HIF-1α stabilizing effect compared to hepatocytes. […] Next HIF-1α abundance was tested in liver tissues harvested from dietary cohorts. HIF-1α protein expression/stabilization was prominent in both Mrs2^−/− and Mrs2^−/− WD, whereas HIF-1α protein was nearly completely absent in WT WD (FIG. 9M). This supports the elevation of HIF-1α protein level as a key mechanism driving transcription changes in Mrs2^−/− WD livers.
Immunoblotting. Crushed tissues were homogenized in lysis buffer (ThermoFisher) on ice for one minute (20-30 strokes) using an automatic Dounce homogenizer set to 2000 RPM. Whole cell lysate was prepared in lysis buffer (Abcam) using 3 sets of 3-second sonication (power level 3) intervals on ice. Protein concentration was estimated using Pierce BCA assay kit and samples were prepared and heated for 90° C. for 5 minutes. Equal amounts of protein were loaded and separated on 4%-12% Bis-Tris polyacrylamide gel (Thermo Fisher Scientific), transferred to a PVDF membrane, blocked for 1-2 h using 5% fat free skim milk, washed and finally, probed with corresponding antibodies as specified below. Antibodies were from Cell Signaling Technology (HIF-1α and Hydroxy HIF-1α dilution 1:3000, MCU dilution 1.5000, MICU1 dilution 1:3000), Abcam Abcam (CPT-1a, CPT-2, OXPHOS cocktail dilution 1:3000), ZYMED Laboratories (β-actin; dilution 1:1,000), and Amersham (secondary antibodies conjugated with peroxidase). Development was done using X-ray film using a series of timed exposures and Image J was used for densitometric analysis on scanned film images.

Bacterial CorA = Bacterial CorA (Salmonella typhimurium, UniProt P0A2R8); conditions: Kucharski et al., 2000, read-out: IC50 for CorA inhibition; cited from earlier work
Bacterial CorA, sequence (P0A2R8 whole entry): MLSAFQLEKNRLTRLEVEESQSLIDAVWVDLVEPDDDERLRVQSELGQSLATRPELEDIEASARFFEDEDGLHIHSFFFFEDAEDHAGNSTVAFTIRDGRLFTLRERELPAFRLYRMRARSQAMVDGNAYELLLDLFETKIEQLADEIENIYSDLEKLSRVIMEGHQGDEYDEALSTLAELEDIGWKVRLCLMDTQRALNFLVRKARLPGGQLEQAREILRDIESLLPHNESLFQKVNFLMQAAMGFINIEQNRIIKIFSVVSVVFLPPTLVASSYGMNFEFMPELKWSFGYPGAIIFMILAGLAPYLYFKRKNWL

Which “MCU-mediated mCa^2+ uptake” value (MCU) does the source give for `[NH2][Co]([NH2])([NH2])([NH2])([NH2])[Cl]` [CPACC, chloropentaammine cobalt (III) chloride] here?
The value was “did not inhibit”.

And the “HIF-1α stabilization by the compound” value (HIF-1α)?
Its value is “partial stabilization”.

What about the IC50 (Bacterial CorA) of the same molecule?
Its IC50 is roughly 100 µM.
